Laboratory results published in ChEMBL document CHEMBL1201862, “PubChem BioAssay data set” (2004).
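Results reflect a 48-hour exposure of cells in 96-well plates to compound at five concentrations. GI50 = concentration required for 50% inhibition of growth.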 Active and inactive are the calls of the source. Cut-off read from the data, not from the text of the source: active = GI50 up to about 1.1 µM and inactive = higher.

Assays:
Experiment in all cases: DTP human tumour cell line panel, 48 h
[1] = system: HOP-18
[2] = system: DMS-114
[3] = system: OVCAR-3
[4] = system: ACHN
[5] = system: A549
[6] = system: Malme-3M
[7] = system: SNB-19
[8] = system: SN12C
[9] = system: SF-268
[10] = system: SW-620
[11] = system: EKVX
[12] = system: NCI-H460
[13] = system: DMS-273
[14] = system: NCI-H522
[15] = system: DLD-1
[16] = system: HL-60
[17] = system: CAKI-1
[18] = system: HCC 2998
[19] = system: OVCAR-5
[20] = system: OVCAR-8
[21] = system: MOLT-4
[22] = system: SF-539
[23] = system: M14
[24] = system: CCRF-CEM
[25] = system: TK-10
[26] = system: M19-MEL
[27] = system: 786-0
[28] = system: UACC-62
[29] = system: SK-OV-3
[30] = system: U-251
[31] = system: OVCAR-4
[32] = system: UACC-257
[33] = system: HT-29
[34] = system: NCI-H23
[35] = system: SK-MEL-5
[36] = system: XF498
[37] = system: UO-31
[38] = system: KM12
[39] = system: LXFL 529
[40] = system: HOP-92
[41] = system: RPMI-8226
[42] = system: IGROV-1
[43] = system: HCT-15
[44] = system: KM-20L2
[45] = system: HOP-62
[46] = system: SNB-75
[47] = system: A498
[48] = system: SF-295
[49] = system: HCT-116
[50] = system: SK-MEL-28
[51] = system: COLO 205
[52] = system: SR
[53] = system: K562
[54] = system: NCI-H226
[55] = system: SK-MEL-2
[56] = system: SNB-78
[57] = system: RXF 393
[58] = system: LOX IMVI

CCOC(=O)C(=O)Nc1cc(Cl)ccc1Cl
GI50 [1]: > 100 µM (inactive)
GI50 [2]: > 100 µM (inactive)
GI50 [3]: > 100 µM (inactive)
GI50 [4]: > 100 µM (inactive)
GI50 [5]: > 100 µM (inactive)
GI50 [6]: > 100 µM (inactive)
GI50 [7]: > 100 µM (inactive)
GI50 [8]: > 100 µM (inactive)
GI50 [9]: > 100 µM (inactive)
GI50 [10]: > 100 µM (inactive)
GI50 [11]: > 100 µM (inactive)
GI50 [12]: > 100 µM (inactive)
GI50 [13]: > 100 µM (inactive)
GI50 [14]: > 100 µM (inactive)
GI50 [15]: > 100 µM (inactive)
GI50 [16]: > 100 µM (inactive)
GI50 [17]: > 100 µM (inactive)
GI50 [18]: > 100 µM (inactive)
GI50 [19]: > 100 µM (inactive)
GI50 [20]: > 100 µM (inactive)
GI50 [21]: > 100 µM (inactive)
GI50 [22]: > 100 µM (inactive)
GI50 [23]: > 100 µM (inactive)
GI50 [24]: > 100 µM (inactive)
GI50 [25]: > 100 µM (inactive)
GI50 [26]: > 100 µM (inactive)
GI50 [27]: > 100 µM (inactive)
GI50 [28]: > 100 µM (inactive)
GI50 [29]: > 100 µM (inactive)
GI50 [30]: > 100 µM (inactive)
GI50 [31]: > 100 µM (inactive)
GI50 [32]: > 100 µM (inactive)
GI50 [33]: > 100 µM (inactive)
GI50 [34]: > 100 µM (inactive)
GI50 [35]: > 100 µM (inactive)
GI50 [36]: > 100 µM (inactive)
GI50 [37]: > 100 µM (inactive)
GI50 [38]: > 100 µM (inactive)
GI50 [39]: > 100 µM (inactive)
GI50 [40]: > 100 µM (inactive)
GI50 [41]: > 100 µM (inactive)
GI50 [42]: > 100 µM (inactive)
GI50 [43]: > 100 µM
GI50 [44]: > 100 µM (inactive)
GI50 [45]: > 100 µM (inactive)
GI50 [46]: 34.2 µM (inactive)
GI50 [47]: > 100 µM (inactive)
GI50 [48]: > 100 µM (inactive)
GI50 [49]: > 100 µM (inactive)
GI50 [50]: > 100 µM (inactive)
GI50 [51]: > 100 µM (inactive)
GI50 [52]: > 100 µM (inactive)
GI50 [53]: > 100 µM (inactive)
GI50 [54]: > 100 µM (inactive)
GI50 [55]: > 100 µM (inactive)

COc1ccc2c([nH]c3cc(O)c(C)cc32)c1CC=C(C)C
GI50 [2]: 20.9 µM (inactive)
GI50 [3]: 5.32 µM (inactive)
GI50 [7]: > 25 µM (inactive)
GI50 [8]: 5.04 µM (inactive)
GI50 [19]: > 25 µM (inactive)
GI50 [20]: 4.42 µM (inactive)
GI50 [29]: > 25 µM (inactive)
GI50 [31]: 22.5 µM (inactive)
GI50 [33]: 7.24 µM (inactive)
GI50 [36]: > 25 µM (inactive)
GI50 [41]: 8.38 µM (inactive)
GI50 [42]: 23.1 µM (inactive)
GI50 [56]: 11.5 µM (inactive)
GI50 [50]: > 25 µM (inactive)
GI50 [51]: > 25 µM (inactive)
GI50 [54]: > 25 µM (inactive)
GI50 [55]: > 25 µM (inactive)

CCCCCCCC/C=C/CCCCCCCC(=O)N(O)C1CC(n2cc(C)c(=O)[nH]c2=O)OC1CO (stereo unspecified)
GI50 [1]: 3.65 µM (inactive)
GI50 [2]: 4.41 µM (inactive)
GI50 [3]: 7.33 µM (inactive)
GI50 [4]: 6.03 µM (inactive)
GI50 [5]: 19 µM (inactive)
GI50 [6]: 9.71 µM (inactive)
GI50 [7]: 12.9 µM (inactive)
GI50 [8]: 10.6 µM (inactive)
GI50 [9]: 11 µM (inactive)
GI50 [10]: 11 µM (inactive)
GI50 [12]: 3.85 µM (inactive)
GI50 [13]: 5.07 µM (inactive)
GI50 [14]: 7.76 µM (inactive)
GI50 [15]: 6.4 µM (inactive)
GI50 [57]: 3.77 µM (inactive)
GI50 [17]: 8.99 µM (inactive)
GI50 [18]: 10.6 µM (inactive)
GI50 [19]: 10.4 µM (inactive)
GI50 [20]: 11.4 µM (inactive)
GI50 [21]: 4.41 µM (inactive)
GI50 [22]: 11.6 µM (inactive)
GI50 [23]: 3.55 µM (inactive)
GI50 [24]: 4.22 µM (inactive)
GI50 [25]: 10.8 µM (inactive)
GI50 [58]: 4.9 µM (inactive)
GI50 [26]: 5.3 µM (inactive)
GI50 [27]: 4.46 µM (inactive)
GI50 [28]: 2.64 µM (inactive)
GI50 [29]: 10.3 µM (inactive)
GI50 [30]: 4.89 µM (inactive)
GI50 [31]: 11.2 µM (inactive)
GI50 [32]: 13.2 µM (inactive)
GI50 [33]: 10.2 µM (inactive)
GI50 [34]: 10.6 µM (inactive)
GI50 [35]: 7.18 µM (inactive)
GI50 [37]: 3.96 µM (inactive)
GI50 [38]: 11.3 µM (inactive)
GI50 [39]: 10.6 µM (inactive)
GI50 [40]: 13.8 µM (inactive)
GI50 [41]: 9.68 µM (inactive)
GI50 [42]: 5.38 µM (inactive)
GI50 [43]: 4.67 µM
GI50 [56]: 18 µM (inactive)
GI50 [44]: 3.56 µM (inactive)
GI50 [45]: 6.25 µM (inactive)
GI50 [46]: 12.1 µM (inactive)
GI50 [47]: 18.3 µM (inactive)
GI50 [48]: 8.28 µM (inactive)
GI50 [49]: 8.53 µM (inactive)
GI50 [50]: 4.51 µM (inactive)
GI50 [51]: 4.8 µM (inactive)
GI50 [52]: 3.27 µM (inactive)
GI50 [53]: 0.488 µM (active)
GI50 [55]: 13.7 µM (inactive)
